Source: patent US20070021303A1, “Safening method” (priority 2004, published 2007)

Legend:
leek [1] = experiment: Seed treatment of leek with safener (seed coating with rotostat system), field, early post-emergence application of ioxynil; format: in vivo, allium porrum
Protocol: (§1) Leek (allium porrum var. Shelton) seeds were coated in a commercial seed coating machine. Gradually, binder solution with X g of mefenpyr-diethyl was added. Seeds were dried subsequently.
The differently-treated seeds were sown in the field using commercial sowing equipment. After 25 days, the seedlings were sprayed with a standard formulation of ioxynil (®Totril) at an application rate of 112 g a.i./ha ioxynil. At 15 days after spraying the number of collapsed seedlings was counted.

leek [2] = experiment: Post-emergence application of herbicide and safener by the tank mix method, leek; format: in vivo
From the text: (§2) Seeds of leek plants were sown in sandy loam soil in round plastic pots of a diameter of 7 cm and covered with a layer of sandy loam of a thickness of about 0.2 cm. The pots were placed in a greenhouse under favorable growth conditions for until the plants had reached the 2-leaves growth stage. Then, a herbicide or—in a parallel experiment—a tank-mix of the herbicide and a safener (using same basic formulation in each case) was applied to the green parts of the plants and the uncovered part of the soil surface with a spray bar using a water application rate of 300 liters per hectare.
(§3) The pots were placed in a greenhouse under favorable growth conditions. Visual scoring of the herbicidal action was carried out 21 or 40 days after treatment with the herbicide or the tank-mix, respectively. Evaluation was carried out on a percentage basis by comparison with untreated control plants (0%=no noticeable effect compared with the untreated plant, 100%=treated plant dies).

leek [3] = experiment: Fluxofenim safening ioxynil damage in leek (seed treatment); format: in vivo, allium porrum
onion [4] = experiment: Seed treatment of onion with safener (encrustment with rotostat), early post-emergence application of ioxynil; format: in vivo, Allium cepa; conditions: var. Brioso
Protocol: (§4) Onion (Allium cepa var. Brioso) seeds were encrusted in a commercial seed coating machine. Approximately 1 ml of binder was added. Subsequently, a small amount of encrustment powder (X % Naphthalic Anhydride+[100−X]% inert filler material) was added. Binder was added again and this procedure was repeated until all encrustment powder was stuck to the seeds. Seeds were dried subsequently.
(§5) The differently-treated seeds were sown in trays. After 9 days, the seedlings were sprayed with 1.0 g/l ioxynil using an atomizer. A dosage of 3 ml per tray was applied, equalizing 300 g.a.i./hectare. At 3 days after spraying the number of collapsed seedlings was counted.

leek [5] = experiment: Seed treatment of leek with safener (encrustment method), early post-emergence application of ioxynil; format: in vivo, allium porrum
Protocol: Leek (allium porrum var. Parton) seeds were put in an erlenmeyer flask with a spinning stirring magnet. A droplet of binder (glue) was added and distributed evenly amongst the seeds. Subsequently, a small amount of encrustment powder (X % mefenpyr-diethyl+[100−X]% inert filler material) was added and mixed through the seeds using the stirring magnet. A droplet of binder was added again and this procedure was repeated until all encrustment powder was stuck to the seeds. Seeds were dried subsequently.
The differently-treated seeds were sown in trays. After 9 days, the seedlings were sprayed with 4.0 g/l ioxynil using an atomizer. A dosage of 3 ml per tray was applied, equalizing 1200 g.a.i./hectare. At 6 days after spraying the number of collapsed seedlings was counted.

leek [6] = experiment: Oxabetrinil safening ioxynil damage in leek (seed treatment); format: in vivo, allium porrum
onion [7] = experiment: Post-emergence application of herbicide and safener by the tank mix method, onion; format: in vivo
From the text: as §2, with “onion” for “leek”
as §3

onion [8] = experiment: Mefenpyr safening oxyfluorfen damage in onion (seed treatment); format: in vivo, Allium cepa; conditions: variety Diamante, oxyfluorfen (Goal) 7.5 g a.i./ha 9 days after seeding
Protocol: as §4, §5
Onion (Allium cepa var. Diamante) were treated with safener, sown, treated with a herbicide and evaluated as described in Example 5 with the difference that the herbicide is oxyfluorfen and the safener is mefenpyr-diethyl.

onion [9] = experiment: Benoxacor safening bromoxynil damage in onion (seed treatment); format: in vivo, Allium cepa; conditions: variety Diamante; safener 0 g a.i./kg seed; bromoxynil-octanoate (Buctril) 25 g a.i./ha 10 days after seeding
Protocol: as §4
The differently-treated seeds were sown in trays. After 9 days, the seedlings were sprayed with 1.0 g/l ioxynil using an atomizer. A dosage of 3 ml per tray was applied, equalizing 300 g.a.i./hectare. […]
Onion (Allium cepa var. Diamante) were treated with safener, sown, treated with a herbicide and evaluated as described in Example 5 with the difference that the herbicide is bromoxynil-octanoate and the safener is benoxacor.

leek [10] = experiment: Mefenpyr safening Prometryn damage in leek (seed treatment); format: in vivo, allium porrum; conditions: prometryn (Gesagard) 750 g a.i./ha 10 days after seeding
Protocol: as §1
The differently-treated seeds were sown in the field using commercial sowing equipment. […]
Leek seeds (allium porrum, var. Shelton or Parton) were treated with safener, sown, treated with a herbicide and evaluated as described in Example 6 with the difference that the herbicide is prometryn.

For `N#Cc1cc(I)c(O)c(I)c1` [H1, 4-hydroxy-3,5-di-iodobenzonitrile], the “Damage to leek (in %) 15 DAT” value (leek [1]; in vivo) was 6%, the “Damage to leek (in %) variety Harston” value (leek [2]; in vivo) was 40% and the “Damage to leek (in %) variety Kenton” value (leek [2]; in vivo) was 55%. For the same compound, the “Damage to seedling (% collapsed) at 5 DAT” value (leek [3]; in vivo) was 16%, the “Damage to onion (in %) 3 DAT” value (onion [4]; no safener, ioxynil 300 g a.i./ha sprayed 9 days after seeding, collapsed seedlings 3 DAT) was 57% and the “Damage to leek (in %) 6 DAT” value (leek [5]; in vivo) was 52%. For the same compound, the “Damage to seedling (% collapsed) at 7 DAT” value (leek [6]; in vivo) was 45%, the “Damage to onion (in %) variety Blanco Duro” value (onion [7]; in vivo) was 55% and the “Damage to onion (in %) variety Brioso” value (onion [7]; in vivo) was 45%.
In the case of `CON(C)C(=O)Nc1ccc(Cl)c(Cl)c1` [H2, linuron], the “Damage to leek (in %) variety Harston” value (leek [2]; variety Harston, 250 g a.i./ha, scoring 40 DAT) is reported as 20%, the “Damage to leek (in %) variety Kenton” value (leek [2]; variety Kenton, 250 g a.i./ha, scoring 40 DAT) is reported as 20% and the “Damage to onion (in %) variety Blanco Duro” value (onion [7]; variety Blanco Duro, 250 g a.i./ha, scoring 40 DAT) is reported as 100%. The “Damage to onion (in %) variety Brioso” value (onion [7]; variety Brioso, 250 g a.i./ha, scoring 40 DAT) was 30%.
`COC(=O)c1ccc(CNS(C)(=O)=O)cc1S(=O)(=O)NC(=O)Nc1nc(OC)cc(OC)n1` [H3, methyl 2-[3-(4,6-dimethoxypyrimidin-2-yl)ureidosulfonyl]-4-methanesulfonylaminomethylbenzoate] was tested, and the “Damage to leek (in %) variety Harston” value (leek [2]; variety Harston, 50 g a.i./ha, scoring 40 DAT) was 50%, the “Damage to leek (in %) variety Kenton” value (leek [2]; variety Kenton, 50 g a.i./ha, scoring 40 DAT) was 45% and the “Damage to onion (in %) variety Blanco Duro” value (onion [7]; in vivo) was 70%. For the same compound, the “Damage to onion (in %) variety Brioso” value (onion [7]; in vivo) was 50%.
For `COc1cc(OC)nc(NC(=O)NS(=O)(=O)c2cc(NC=O)ccc2C(=O)N(C)C)n1` [H4, N,N-dimethyl-2-[3-(4,6-dimethoxypyrimidin-2-yl)ureidosulfonyl]-4-formylaminobenzamide], the “Damage to leek (in %) variety Harston” value (leek [2]; in vivo) was 50%, the “Damage to leek (in %) variety Kenton” value (leek [2]; in vivo) was 50% and the “Damage to onion (in %) variety Blanco Duro” value (onion [7]; in vivo) was 10%. For the same compound, the “Damage to onion (in %) variety Brioso” value (onion [7]; in vivo) was 30%.
In the case of `CCOc1cc(Oc2ccc(C(F)(F)F)cc2Cl)ccc1[N+](=O)[O-]` [H6, oxyfluorfen], the “Damage to seedling (% collapsed) at 5 DAT” value (onion [8]; safener 0 g a.i./kg seed) is reported as 83%.
With `CCCCCCCC(=O)Oc1c(Br)cc(C#N)cc1Br` [H7, bromoxynil-octanoate] the “Damage to seedling (% collapsed) at 5 DAT” value (onion [9]) was 19%.
With `FC(F)(F)C(=NOCC1OCCO1)c1ccc(Cl)cc1` [fluxofenim, 1-(4-chlorophenyl)-2,2,2-trifluoro-1-ethanone O-(1,3-dioxolan-2-ylmethyl)oxime] the “Damage to seedling (% collapsed) at 5 DAT” value (leek [3]; variety Shelton, safener fluxofenim 1 g a.i./kg seed, ioxynil (Totril) 112 g a.i./ha 10 days after seeding) was 10% and the “Damage to seedling (% collapsed) at 5 DAT” value (leek [3]; variety Shelton, safener fluxofenim 2 g a.i./kg seed, ioxynil (Totril) 112 g a.i./ha 10 days after seeding) was 6%.
In the case of `CCOC(=O)C1=NN(c2ccc(Cl)cc2Cl)C(C)(C(=O)OCC)C1` (centres unmarked) [mefenpyr-diethyl, ethyl 1-(2,4-dichlorophenyl)-5-(ethoxycarbonyl)-5-methyl-2-pyrazoline-3-carboxylate], the “Damage to leek (in %) 15 DAT” value (leek [1]; var. Shelton, field, ST3 = seed treatment 2.0 g a.i./kg mefenpyr-diethyl, ioxynil 112 g a.i./ha 25 days after seeding, 15 DAT) is reported as “significantly reduced the amount of damage”, the “Damage to seedling (% collapsed) at 6 DAT” value (leek [10]; variety Parton, safener mefenpyr-diethyl 1 g a.i./kg seed) is reported as 3% and the “Damage to seedling (% collapsed) at 6 DAT” value (leek [10]; variety Parton, safener mefenpyr-diethyl 2 g a.i./kg seed) is reported as 1%. For the same compound, the “Damage to seedling (% collapsed) at 6 DAT” value (leek [10]; variety Shelton, safener mefenpyr-diethyl 1 g a.i./kg seed) was 2%, the “Damage to seedling (% collapsed) at 6 DAT” value (leek [10]; variety Shelton, safener mefenpyr-diethyl 2 g a.i./kg seed) was 1% and the “damage (collapsed seedlings) versus control-treated seedlings” value (leek [5]; var. Parton, mefenpyr seed treatment, then ioxynil 1200 g a.i./ha, 6 days after application) was “significantly less damage”. For the same compound, the “Damage to seedling (% collapsed) at 5 DAT” value (onion [8]; safener mefenpyr-diethyl 2 g a.i./kg seed) was 64%, the “Damage to seedling (% collapsed) at 5 DAT” value (onion [8]; safener mefenpyr-diethyl 4 g a.i./kg seed) was 49% and the “Damage to seedling (% collapsed) at 5 DAT” value (onion [8]; safener mefenpyr-diethyl 8 g a.i./kg seed) was 39%.
For `O=C1OC(=O)c2cccc3cccc1c23` [naphthalic anhydride, 1,8-naphthalenedicarboxylic anhydride], the “damage (collapsed seedlings) versus control-treated seedlings” value (onion [4]; naphthalic anhydride seed treatment, then ioxynil 300 g a.i./ha, after 3 days) was “significantly less damage”.
In the case of `N#C/C(=N\OCC1OCCO1)c1ccccc1` [oxabetrinil, (Z)-1,3-dioxolan-2-ylmethoxyimino(phenyl)-acetonitrile], the “Damage to seedling (% collapsed) at 7 DAT” value (leek [6]; variety Shelton, safener oxabetrinil 1 g a.i./kg seed, ioxynil (Totril) 112 g a.i./ha 10 days after seeding) is reported as 25%, the “Damage to seedling (% collapsed) at 7 DAT” value (leek [6]; variety Shelton, safener oxabetrinil 2 g a.i./kg seed, ioxynil (Totril) 112 g a.i./ha 10 days after seeding) is reported as 27% and the “Damage to seedling (% collapsed) at 7 DAT” value (leek [6]; variety Shelton, safener oxabetrinil 4 g a.i./kg seed, ioxynil (Totril) 112 g a.i./ha 10 days after seeding) is reported as 13%.
